In patent US20260263361A1, “CANNABIDIOL AQUEOUS SOLUTION COMPOSITION AND CANNABIDIOL-CONTAINING PHARMACEUTICAL PREPARATION COMPRISING SAME” (priority 2023, published 2026):

Key:
[1] = Long-term stability of CBD-containing film: CBD content by HPLC after storage under harsh conditions; type: physicochemical
Description: The long-term stability of the orally disintegrating film of Example 2, having the composition of Table 6, was evaluated.
For comparison, the long-term stability of CBD in the orally disintegrating film containing CBD-prepared according to the composition shown in Table 7 and corresponding to Korean Patent Application No. 10-2019-0097649—was evaluated as Comparative Example 2.
Immediately after film formation, the films were packaged in airtight containers and left under harsh conditions for 0, 24, and 72 hours, after which the CBD content was analyzed by high-performance liquid chromatography (HPLC).
Additionally, further experiments were conducted to increase the stability of the orally disintegrating film of the current Example 2.

[2] = Primary solubilizer mixed with an additional solubilizer, extent of CBD dissolution observed; type: physicochemical
Description: Due to the compatibility required between ingredients for use in the CBD aqueous solution formulation, additional solubilizerswere mixed with the selected primary components, and the extent of CBD dissolution was evaluated.

SMILES | Decrease (24 hrs, %) ([1]; 24 hrs vs 0 hr) | CBD content 0 hr ([1]; airtight container, 0 hr, HPLC) | CBD content 24 hr ([1]; airtight container, 24 hr, HPLC) | state of CBD in aqueous solution (FIG. 1) [2]
C=C(C)[C@@H]1CCC(C)=C[C@H]1c1c(O)cc(CCCCC)cc1O [CBD isolate powder, 2-[(1R,6R)-3-methyl-6-(1-methylethenyl)-2-cyclohexen-1-yl]-5-pentyl-1,3-benzenediol] | 0.28% | 103.58 | 103.86 | 
OCC(O)CO [Glycerin] |  |  |  | not dissolved and appeared as precipitate or crystals
